From patent publication US10538516B2, “Oxadiazole derivative and pharmaceutical containing same” (National Center for Geriatrics and Gerontology, priority 2015, dated 2020)
Read-outs that look alike come from different tables or passages of the source.

What was measured:
[1] = biological target: T1, GAβ-dependent amyloid fibril formation (Human Aβ1-40 + GM1-containing liposome) (Homo sapiens, UniProt P05067); assay: Thioflavin T (ThT) assay of GAβ-dependent amyloid fibril formation (Aβ1-40 with GM1-containing liposome); assay type: biochemical
T1 construct: Human Aβ1-40 (cat. #4307-v, prepared by Peptide Institute); purchased Peptide Institute 4307-v
Outline: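 Human Aβ1-40 (75 μM stock) pre-incubated 10 min at room temperature with compound (75 or 15 μM solution), then GM1-containing cholesterol/sphingomyelin liposome added and incubated 37° C, 18 hours. Fibrils quantified by ThT fluorescence (ex 430/em 490 nm, pH 8.5 glycine buffer); inhibition as ratio to compound-free control.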

[2] = inhibition rate against amyloid fibril formation, final concentration of the compound 25 μM, read-out: Inhibitory activity ABC evaluation
[3] = @25 μM, read-out: ThT Inhibitory activity (% inhibition)

T1 sequence (P05067 672-711 limits assumed): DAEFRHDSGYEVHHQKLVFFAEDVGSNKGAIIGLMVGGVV

inhibition at 25 µM [1, 2] [%] | melting point [°C] | inhibition at 25 µM [1, 3] [%] | inhibition at 25 µM ([1]; final concentration of the compound 25 μM, ratio of ThT fluorescence intensity with/without compound, 37° C. for 18 hours, read-out: inhibition rate against amyloid fibril formation (inhibitory activity on a scale of A to C)) [%] | Compound
< 40 | 95 |  |  | COc1ccc(-c2noc(CCC(=O)N(CCO)c3cccc(Cl)c3)n2)cc1 [Compound 3, N-(3-chlorophenyl)-N-(2-hydroxyethyl)-3-{3-(4-methoxyphenyl)-1,2,4-oxadiazol-5-yl}propanamide]
40 to 80 | 85 |  |  | CCCN(C(=O)CCc1nc(-c2ccc(OC)cc2)no1)c1cccc(Cl)c1 [Compound 2, N-(3-chlorophenyl)-3-{3-(4-methoxyphenyl)-1,2,4-oxadiazol-5-yl}-N-propylpropanamide]
40 to 80 | 80 |  |  | COc1ccc(-c2noc(CCC(=O)N(CCCO)c3cccc(Cl)c3)n2)cc1 [Compound 6, N-(3-chlorophenyl)-N-(3-hydroxypropyl)-3-{3-(4-methoxyphenyl)-1,2,4-oxadiazol-5-yl}propanamide]
< 40 | 108 |  |  | CCCN(C(=O)Cc1nc(-c2ccc(OC)cc2)no1)c1cccc(Cl)c1 [Compound 1, N-(3-chlorophenyl)-2-{3-(4-methoxyphenyl)-1,2,4-oxadiazol-5-yl}-N-propylacetamide]
< 40 | 167 |  |  | COc1ccc(-c2noc(CCC(=O)Nc3cc(Cl)ccn3)n2)cc1 [Compound 4, N-(4-chloropyridin-2-yl)-3-{3-(4-methoxyphenyl)-1,2,4-oxadiazol-5-yl}propanamide]
> 80 |  | 98 | > 80 | O=C(N[C@@H](CO)c1nc(-c2ccc(OC(F)(F)F)cc2)no1)c1ccc(Cl)cc1 [Compound 39, (S)-4-chloro-N-(2-hydroxy-1-{3-[4-(trifluoromethoxy)phenyl]-1,2,4-oxadiazol-5-yl}ethyl)benzamide]
> 80 |  | 87 |  | O=C(N[C@@H](CO)c1nc(-c2ccc(O)cc2)no1)c1ccccc1 [Compound 146, N-[(1S)-2-hydroxy-1-[3-(4-hydroxy-phenyl)-1,2,4-oxadiazol-5-yl]ethyl]benzamide]
< 40 |  |  |  | CNC(=O)C[C@H](NC(=O)c1ccc(Cl)cc1)c1nc(-c2ccc(OC(F)(F)F)cc2)no1 [Compound 88, (S)-4-chloro-N-(3-(methylamino)-3-oxo-1-[3-{4-(trifluoromethoxy)phenyl}-1,2,4-oxadiazol-5-yl]propyl) benzamide]
40 to 80 |  |  |  | CCOCCOc1ccc(C(=O)N[C@@H](CO)c2nc(-c3ccc(C(F)(F)F)cc3)no2)cc1 [Compound 170]
> 80 |  | 81 |  | O=C(N[C@@H](CO)c1nc(-c2ccc(C(F)(F)F)cc2)no1)c1ccc(N2CCCC2)cc1 [Compound 203, N-[(1S)-2-hydroxy-1-{3-[4-(trifluoromethyl)phenyl]-1,2,4-oxadiazol-5-yl}ethyl]-4-(pyrrolidin-1-yl) benzamide]
40 to 80 |  |  |  | O=C1CC(c2nc(-c3ccc(OC(F)(F)F)cc3)no2)CN1c1ccc(Cl)cn1 (stereo not shown) [Compound 49, 1-(5-chloropyridin-2-yl)-4-[3-{4-(trifluoro-methoxy)phenyl}-1,2,4-oxadiazol-5-yl] pyrrolidin-2-one]
> 80 |  | 87 |  | O=C(N[C@@H](CO)c1nc(-c2ccc(OC(F)(F)F)cc2)no1)c1ccc(F)cc1 [Compound 69, (S)-4-fluoro-N-(2-hydroxy-1-[3-{4-(trifluoro-methoxy)phenyl}-1,2,4-oxadiazol-5-yl]ethyl) benzamide]
40 to 80 |  | 74 |  | O=C(N[C@@H](CO)c1nc(-c2ccc(OCCO)cc2)no1)c1ccccc1 [Compound 156, N-[(1S)-2-hydroxy-1-{3-[4-(2-hydroxyethoxy)phenyl]-1,2,4-oxadiazol-5-yl}ethyl] benzamide]
> 80 |  |  |  | O=C(N[C@H](CO)c1nc(-c2ccc(OC(F)(F)F)cc2)no1)c1ccc(Cl)cc1 [Compound 83, (R)-4-chloro-N-(2-hydroxy-1-[3-{4-(trifluoromethoxy)phenyl}-1,2,4-oxadiazol-5-yl]ethyl)benzamide]
